Laboratory results published in US9226503B2, “Composition and method for attraction of emerald ash borer Agrilus planipennis fairmaire (coleoptera: buprestidae)” (Her Majesty the Queen in Right of Canada, as represented by …, priority 2011, dated 2016).

Tests used:
[1] = test system: A. planipennis; assay: Field trapping experiment 2 (2009), purple prism traps, Ontario; format: in vivo, Agrilus planipennis; conditions: as compared to the Phoebe oil alone
Experimental: Field trapping. Three trapping experiments were carried out in green ash plantations (F. pennsylvanica Marsch) with low-to-moderate A. planipennis populations about 40 km southeast of Sarnia, Ontario (42° 58′ 0 N, 82° 24′ 0 W) in 2008, 2009 and 2010. Trees at these sites were generally healthy in appearance with low or no signs of decline, and only a small number of trees had obvious signs/symptoms of infestation by A. planipennis. In Ontario sites, trees were 20-25 years old, 4-6 m tall, 10-15 cm in diameter, and spaced about 2 m apart within a row and 2.5 m between rows. In 2010, the trapping experiment was replicated at four sites in Michigan, USA, in addition to the sites in Ontario. Sites in Michigan were 10-100 years old, 10-30 m tall, 15-70 cm in diameter, and located in a mixed woodlot. […] Traps were checked every 2 weeks and A. planipennis were collected, counted and sexed. […]
The effect of each attractant on mean catch of female and male A. planipennis was analyzed independently using ANOVA and a randomized complete block design. Sites were analyzed separately in 2009 due to differences in sex ratios. In 2010, sites in Ontario were analyzed separately from those in Michigan due to the considerable differences in stand conditions and height of traps with respect to the ash canopy. […]

[2] = test system: A. planipennis antennae; assay: EAG dose-response study; parameters: species or system Agrilus planipennis; conditions: for EAG responsiveness of female antennae compared with male antennae: particularly at higher doses, P<0.0001; for EAG response of female antennae, (3Z)- vs (3E)-lactone: stimulus doses 0.01-100 μg, P=0.91
Source text: EAG analyses were made by methods and equipment generally described by Cossé & and Bartelt (2000). EAG connections were made by inserting a glass-pipette silver-grounding electrode into the back of an excised beetle head. A second glass-pipette silver-recording probe was placed in contact with the distal end of one antenna. Both pipettes were filled with Beadle-Ephrussi (Ephrussi and Beadle 1936) saline.
For the EAG-dose-response study, (3Z)- and (3E)-lactones were purified (99.9% purity by GC/MS) by high performance liquid chromatography (HPLC) using a Waters 515 pump, a Waters R401 refractive index detector, and a 25 cm by 0.46 cm i.d. silica column (Adsorbosphere Silica 5 μm, Alltech, Deerfield, Ill.), treated with silver nitrate as described by Heath and Sonnett (1980). Solvent was 8% ether in hexane. Ten micro liters of serially diluted solutions (methylene chloride) of synthetic (3Z)-lactone and (3E)-lactone were applied to filter paper strips (0.5 cm×5 cm, Whatman no. 1). The filter paper strips were placed in 14-cm-long Pasteur pipettes, hereafter referred to as stimulus cartridges, after 5 min at room temperature. Stimulus doses tested were 0.01, 0.1, 1, 10, and 100 μg. Male and female antennae were exposed to single 0.2s puffs of odor-bearing air at 5 ml/s by placing the tip of an stimulus cartridge into a hole of a glass tube (0.7 cm ID×20 cm), 10 cm from the outlet and 11 cm away from the antennal preparation. Airflow through the glass tube was humidified and set at 10 ml/s. Puff duration and airflow speeds were maintained by a stimulus flow controller (SFC-2, Syntech, Hilversum, The Netherlands). Stimuli cartridges were selected in random order, beginning with the lowest dosages and working upward to the highest dosages. Each puffed dosage was preceded and followed by a puff from a solvent blank cartridge (filter paper plus solvent). To compensate for possible deterioration of the antennal preparation, a standard control compound, geranyl acetone (1 μg dose) preceded dosages of stimuli compound. EAG amplitudes were normalized according to the responses to geranyl acetone by dividing the amplitude of the EAG generated by the test compounds by that of geranyl acetone. Dose-response series were replicated, using different antennal preparation for each replication, and the EAG responses were expressed as a percentage of the EAG responses to geranyl acetone. Each antennal preparation was tested with freshly prepared sets of stimuli cartridges. Male and female EAG responses were submitted to analysis of variance (ANOVA) using Statistica for Windows software (StatSoft Inc. Tulsa, Okla.)).

Row | Structure (SMILES) | number of male or female A. planipennis captured, effect of lactone alone or with Phoebe oil [1] | EAG responsiveness of female antennae compared with male antennae [2] | EAG response of female antennae, (3Z)- vs (3E)-lactone [2]
1 | O=C1C/C=C\CCCCCCCCO1 [(3Z)-lactone, (3Z)-dodecen-12-olide] | neither (3Z) nor (3E)-lactone alone, or in combination with Phoebe oil, significantly increased | more responsive | did not respond differently
2 | O=C1C/C=C/CCCCCCCCO1 [(3E)-lactone, (3E)-dodecen-12-olide] | neither (3Z) nor (3E)-lactone alone, or in combination with Phoebe oil, significantly increased | more responsive | did not respond differently
